Measured values published in US9388149B2, “Disubstituted 3,4-diamino-3-cyclobutene-1,2-dione compounds for use in the treatment of chemokine-mediated diseases” (GALDERMA RESEARCH & DEVELOPMENT, priority 2011, dated 2016).

Tests used:
CXCR1 receptor = CXCR1 receptor (Homo sapiens (Human), UniProt P25024); test: β-arrestin recruitment test, U2OS hCXCR1 β-arrestin cells stimulated with CXCL8; type: cell-based; settings: inhibition of CXCL8 (10 nM) induced β-arrestin 2 recruitment; *9999 signifies not active
Procedure: (§1) The in vitro affinity of the compounds of the present invention for the CXCR1 and CXCR2 receptors was determined on a functional test of the β-arrestin recruitment after receptor activation type.
(§2) β-Arrestin recruitment test: “PathHunter HEK293-CXCR2” or “U2OS hCXCR1 β-arrestin” cells (DiscoveRx Corporation) were seeded overnight at 10 000 cells/well (384-well format) in 20 μl of Opti MEM I medium. A preincubation with the antagonist or the vehicle for 30 min at 37° C. and 5% CO2 was followed by 60 minutes of stimulation with CXCL8 at 37° C. and 5% CO2. The cells were then placed at ambient temperature for 30 minutes. The PathHunter detection reagent (DiscoveRx Corporation) was added. […] The data were analyzed by means of a non-linear curve procedure using the XLFit4 exploitation software (IDBS) and the IC50 values were determined.

CXCR2 receptor = CXCR2 receptor (Homo sapiens (Human), UniProt P25025); test: β-arrestin recruitment test, PathHunter HEK293-CXCR2 cells stimulated with CXCL8; type: cell-based; settings: inhibition of CXCL8 (10 nM) induced β-arrestin 2 recruitment; *9999 signifies not active
Procedure: as §1, §2

Chain of CXCR1 receptor (P25024 whole entry): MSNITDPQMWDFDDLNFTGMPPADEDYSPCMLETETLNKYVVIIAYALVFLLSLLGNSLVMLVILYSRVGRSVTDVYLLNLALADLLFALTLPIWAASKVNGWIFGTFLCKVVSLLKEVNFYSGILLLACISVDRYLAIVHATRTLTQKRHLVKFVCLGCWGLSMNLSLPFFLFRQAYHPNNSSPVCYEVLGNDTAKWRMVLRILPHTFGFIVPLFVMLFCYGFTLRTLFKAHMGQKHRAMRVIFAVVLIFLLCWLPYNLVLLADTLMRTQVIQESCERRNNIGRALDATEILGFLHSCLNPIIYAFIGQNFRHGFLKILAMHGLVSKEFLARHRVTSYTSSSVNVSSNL
Chain of CXCR2 receptor (P25025 whole entry): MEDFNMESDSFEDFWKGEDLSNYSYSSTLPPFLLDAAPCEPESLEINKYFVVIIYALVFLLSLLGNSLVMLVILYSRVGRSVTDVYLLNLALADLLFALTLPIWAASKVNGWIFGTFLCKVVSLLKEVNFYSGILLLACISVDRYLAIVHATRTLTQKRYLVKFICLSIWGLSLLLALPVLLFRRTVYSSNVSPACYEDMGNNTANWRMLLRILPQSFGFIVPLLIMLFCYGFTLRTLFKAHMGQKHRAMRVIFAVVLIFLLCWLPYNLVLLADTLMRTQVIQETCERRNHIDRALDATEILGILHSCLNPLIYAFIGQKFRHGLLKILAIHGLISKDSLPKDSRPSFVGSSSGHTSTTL

| SMILES | IC50 (CXCR1 receptor) [nM] | IC50 (CXCR2 receptor) [nM] |
| --- | --- | --- |
| Cc1ccc(C(Nc2c(Nc3cccc(C(=O)N(C)C)c3O)c(=O)c2=O)C2(C)CCCO2)o1 (single isomer, unassigned) [Example 1 (Enantiomer 1 of diastereoisomer 2), 2-Hydroxy-N,N-dimethyl-3-(2-{[(5-methylfuran-2-yl)-(2-methyltetrahydrofuran-2-yl)methyl]amino}-3,4-dioxo-cyclobut-1-enylamino)benzamide] |  | 10000 |
| Cc1ccc(C(Nc2c(Nc3cccc(C(=O)N(C)C)c3O)c(=O)c2=O)C2CCCS2)o1 (single isomer, unassigned) [Example 2 (Enantiomer 1 of diastereoisomer 1), 2-Hydroxy-N,N-dimethyl-3-(2-{[(5-methylfuran-2-yl)-(tetrahydrothiophen-2-yl)methyl]amino}-3,4-dioxo-cyclobut-1-enylamino)benzamide] |  | 273 |
| Cc1ccc(C(Nc2c(Nc3cccc(C(=O)N(C)C)c3O)c(=O)c2=O)[C@@H]2COC(C)(C)O2)o1 (single isomer, unassigned) [Example 14 (Diastereoisomer 1)] | 10000 | 10000 |
| Cc1ccc(C(Nc2c(Nc3cccc(C(=O)N(C)C)c3O)c(=O)c2=O)[C@@H]2COC(C)(C)O2)o1 (single isomer, unassigned) [Example 14 (Diastereoisomer 2)] | 10000 | 1250 |
| Cc1ccc(C(Nc2c(Nc3cccc(C(=O)N(C)C)c3O)c(=O)c2=O)[C@H]2CCCO2)o1 (stereo in doubt) [Example 11, 2-hydroxy-N,N-dimethyl-3-(2-{[(R)-(5-methylfuran-2-yl)tetrahydrofuran-2-ylmethyl]amino}-3,4-dioxocyclobut-1-enylamino)benzamide] | 1320 | 176 |

The next molecules have a lower IC50 (CXCR2 receptor) than those just listed; values first:

| IC50 (CXCR1 receptor) [nM] | IC50 (CXCR2 receptor) [nM] | SMILES |
| --- | --- | --- |
| 580 | 153 | COC(=O)CN(C)C(=O)c1cccc(Nc2c(NC(c3ccc(C)o3)C3CCCS3)c(=O)c2=O)c1O (single isomer, unassigned) [9 (Diastereoisomer 1), methyl {[2-hydroxy-3-(2-{[(5-methylfuran-2-yl)-(tetrahydrothiophen-2-yl)methyl]amino}-3,4-dioxocyclobut-1-enylamino)benzoyl]methylamino}acetate] |
|  | 89 | Cc1ccc(C(Nc2c(Nc3cccc(C(=O)N(C)C)c3O)c(=O)c2=O)C2(C)CCCO2)o1 (single isomer, unassigned) [Example 1 (diastereoisomer 1), 2-hydroxy-N,N-dimethyl-3-(2-{[(5-methylfuran-2-yl)-(2-methyltetrahydrofuran-2-yl)methyl]amino}-3,4-dioxocyclobut-1-enylamino)benzamide] |
|  | 56 | Cc1ccc(C(Nc2c(Nc3cccc(C(=O)N(C)C)c3O)c(=O)c2=O)C2CCCS2)o1 (single isomer, unassigned) [Example 2 (Enantiomer 2 of diastereoisomer 1), 2-Hydroxy-N,N-dimethyl-3-(2-{[(5-methylfuran-2-yl)-(tetrahydrothiophen-2-yl)methyl]amino}-3,4-dioxo-cyclobut-1-enylamino)benzamide] |
| 508 | 115 | Cc1ccc(C(Nc2c(Nc3cccc(C(=O)N(C)CC(F)(F)F)c3O)c(=O)c2=O)C2CCCS2)o1 (single isomer, unassigned) [Example 8 (Diastereoisomer 1)] |
| 85 | 47 | Cc1ccc(C(Nc2c(Nc3cccc(C(=O)N(C)CC(F)(F)F)c3O)c(=O)c2=O)C2CCCS2)o1 (single isomer, unassigned) [Example 8 (Diastereoisomer 2)] |
| 89 | 80 | COC(=O)CN(C)C(=O)c1cccc(Nc2c(NC(c3ccc(C)o3)C3CCCS3)c(=O)c2=O)c1O (single isomer, unassigned) [Example 9 (Diastereoisomer 2), methyl {[2-hydroxy-3-(2-{[(5-methylfuran-2-yl)-(tetrahydrothiophen-2-yl)methyl]amino}-3,4-dioxocyclobut-1-enylamino)benzoyl]methylamino}acetate] |
